Source: ChEMBL document CHEMBL5465560, “Selectivity Literature for EUbOPEN Chemogenomic Library” (2024)

Experiments:
[1] = target: Mitogen-activated protein kinase kinase kinase 11 (Homo sapiens) (UniProt Q16584); assay: Selectivity interaction (ProQinase) EUB0000171b MAP3K11
[2] = target: T1, Tyrosine-protein kinase JAK3 (Homo sapiens) (UniProt P52333); assay: Selectivity interaction (SelectScreen profiling (Invitrogen)) EUB0000607a JAK3; conditions: at 2 µM
T1 sequence (whole entry): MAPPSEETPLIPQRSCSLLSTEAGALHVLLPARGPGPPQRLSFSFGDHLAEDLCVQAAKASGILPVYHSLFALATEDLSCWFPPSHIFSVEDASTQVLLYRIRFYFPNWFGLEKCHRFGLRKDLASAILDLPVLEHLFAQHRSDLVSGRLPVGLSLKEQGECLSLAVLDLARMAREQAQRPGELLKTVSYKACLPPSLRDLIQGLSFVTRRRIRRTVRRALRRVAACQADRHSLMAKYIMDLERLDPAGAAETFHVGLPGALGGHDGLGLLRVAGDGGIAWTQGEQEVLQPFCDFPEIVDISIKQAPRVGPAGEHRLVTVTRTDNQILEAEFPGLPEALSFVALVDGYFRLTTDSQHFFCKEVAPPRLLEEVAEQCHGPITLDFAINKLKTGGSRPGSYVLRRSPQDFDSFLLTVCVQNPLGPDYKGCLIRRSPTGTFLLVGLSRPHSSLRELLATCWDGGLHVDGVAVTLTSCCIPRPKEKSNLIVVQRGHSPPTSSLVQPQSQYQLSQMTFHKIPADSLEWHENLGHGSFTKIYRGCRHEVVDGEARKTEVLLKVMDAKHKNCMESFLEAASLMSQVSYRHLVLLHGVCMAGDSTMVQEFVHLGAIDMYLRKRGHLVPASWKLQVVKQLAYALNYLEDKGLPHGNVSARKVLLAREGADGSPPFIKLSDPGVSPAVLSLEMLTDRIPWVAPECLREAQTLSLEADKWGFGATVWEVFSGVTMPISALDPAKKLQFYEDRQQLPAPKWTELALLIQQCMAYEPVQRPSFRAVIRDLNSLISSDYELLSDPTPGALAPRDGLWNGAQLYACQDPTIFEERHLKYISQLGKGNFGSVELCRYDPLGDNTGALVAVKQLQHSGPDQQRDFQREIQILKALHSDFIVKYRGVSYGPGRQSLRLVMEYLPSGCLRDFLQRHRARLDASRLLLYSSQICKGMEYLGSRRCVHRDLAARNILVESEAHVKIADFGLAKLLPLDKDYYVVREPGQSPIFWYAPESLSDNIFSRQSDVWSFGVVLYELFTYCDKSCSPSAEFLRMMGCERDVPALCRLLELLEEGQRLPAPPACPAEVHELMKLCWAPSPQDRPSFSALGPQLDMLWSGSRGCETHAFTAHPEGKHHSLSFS

[3] = target: T2, Ephrin type-B receptor 1 (Homo sapiens) (UniProt P54762); assay: Selectivity interaction (KinomeScan (DiscoverX)) EUB0000618a EPHB1; conditions: at 10 µM
T2 sequence (whole entry): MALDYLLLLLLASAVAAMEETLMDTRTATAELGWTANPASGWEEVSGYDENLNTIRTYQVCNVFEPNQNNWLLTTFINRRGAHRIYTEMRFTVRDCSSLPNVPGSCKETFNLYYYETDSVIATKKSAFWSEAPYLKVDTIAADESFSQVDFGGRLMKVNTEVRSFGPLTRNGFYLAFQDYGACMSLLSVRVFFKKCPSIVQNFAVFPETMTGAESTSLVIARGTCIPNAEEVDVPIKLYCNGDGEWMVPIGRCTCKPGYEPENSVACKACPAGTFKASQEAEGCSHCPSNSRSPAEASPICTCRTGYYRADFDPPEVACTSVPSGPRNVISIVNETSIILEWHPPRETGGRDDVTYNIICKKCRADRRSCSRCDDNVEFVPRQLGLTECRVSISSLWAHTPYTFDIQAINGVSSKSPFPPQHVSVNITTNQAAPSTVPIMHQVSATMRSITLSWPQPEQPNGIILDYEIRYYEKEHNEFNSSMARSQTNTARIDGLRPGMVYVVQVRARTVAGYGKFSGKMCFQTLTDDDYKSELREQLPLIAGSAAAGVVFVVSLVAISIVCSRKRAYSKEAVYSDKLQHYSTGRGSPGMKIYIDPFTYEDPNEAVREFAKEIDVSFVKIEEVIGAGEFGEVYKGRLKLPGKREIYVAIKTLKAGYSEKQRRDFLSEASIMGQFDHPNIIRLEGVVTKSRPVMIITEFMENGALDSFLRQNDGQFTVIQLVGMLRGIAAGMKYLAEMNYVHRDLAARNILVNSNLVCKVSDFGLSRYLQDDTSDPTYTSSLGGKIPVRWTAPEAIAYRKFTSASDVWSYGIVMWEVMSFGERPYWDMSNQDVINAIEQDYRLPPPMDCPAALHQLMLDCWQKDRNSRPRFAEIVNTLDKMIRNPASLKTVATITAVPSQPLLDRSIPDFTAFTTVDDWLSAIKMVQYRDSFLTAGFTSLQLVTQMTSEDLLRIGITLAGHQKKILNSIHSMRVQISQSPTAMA

Chain of Mitogen-activated protein kinase kinase kinase 11 (Homo sapiens) (Q16584 whole entry, looked up): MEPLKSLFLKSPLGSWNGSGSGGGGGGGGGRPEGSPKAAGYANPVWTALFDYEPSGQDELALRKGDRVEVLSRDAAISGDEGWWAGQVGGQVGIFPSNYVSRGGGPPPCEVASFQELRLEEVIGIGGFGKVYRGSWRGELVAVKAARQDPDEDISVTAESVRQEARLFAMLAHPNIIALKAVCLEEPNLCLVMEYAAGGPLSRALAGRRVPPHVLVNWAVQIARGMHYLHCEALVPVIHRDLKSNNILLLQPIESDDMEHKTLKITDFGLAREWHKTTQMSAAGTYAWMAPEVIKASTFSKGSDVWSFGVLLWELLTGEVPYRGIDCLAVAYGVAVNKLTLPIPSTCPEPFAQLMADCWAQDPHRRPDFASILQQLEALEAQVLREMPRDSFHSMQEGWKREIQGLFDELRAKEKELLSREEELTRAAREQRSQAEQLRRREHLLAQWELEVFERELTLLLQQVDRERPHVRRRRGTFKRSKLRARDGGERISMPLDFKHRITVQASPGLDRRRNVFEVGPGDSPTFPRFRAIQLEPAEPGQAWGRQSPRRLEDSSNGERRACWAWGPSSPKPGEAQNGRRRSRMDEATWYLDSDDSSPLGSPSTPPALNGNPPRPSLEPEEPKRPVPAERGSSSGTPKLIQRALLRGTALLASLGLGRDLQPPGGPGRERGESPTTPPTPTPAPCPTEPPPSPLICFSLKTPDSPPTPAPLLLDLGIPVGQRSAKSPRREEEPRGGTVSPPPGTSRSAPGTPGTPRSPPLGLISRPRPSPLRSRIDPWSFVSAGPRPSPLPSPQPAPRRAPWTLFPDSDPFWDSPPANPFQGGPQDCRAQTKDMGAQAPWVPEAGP

## C=CC(=O)Nc1cccc(C(=O)Nc2ccc(Nc3cc(-c4[nH]c(SC)nc4C)ccn3)cc2)c1
[1]; at 1 µM
  % of control: 28%
[1]; at 5 µM
  % of control: 13%

## CNC(=O)Nc1ccc(-c2nc(N3CC4CCC(C3)O4)c3cnn(C4CCC5(CC4)OCCO5)c3n2)cc1
[2]
  % of inhibition: 0%

## O[C@H]1CC[C@H](Nc2ncc3nc(Nc4c(F)cc(F)cc4F)n([C@H]4CCOC4)c3n2)CC1
[3]
  % of control: 96%
